According to paper PMC4549708, “Inhibition of neuraminidase by Ganoderma triterpenoids and implications for neuraminidase inhibitor design” (Scientific Reports, 2015):

Legend:
NA (H3N2, E119V) = format: biochemical, Influenza A virus A/Babol/36/2005(H3N2)(E119V); conditions: 200 µM
H1N1 (A/HA-58pdm-TR) = test: microbe, parasite or virus in culture; format: cell-based, oseltamivir-resistant strain; conditions: Influenza A virus, H1N1, MDCK
NA (H1N1, N295S) = format: biochemical, Influenza A virus A/California/04/2009(H1N1)(N295S); conditions: 200 µM

Compound | Inhibition rate (%) NA(H3N2, E119V) (NA (H3N2, E119V)) [%] | IC50 (H1N1 (A/HA-58pdm-TR)) [µM] | Inhibition rate (%) NA(H1N1, N295S) (NA (H1N1, N295S)) [%]
CC(=O)O[C@H]1C[C@H]([C@H](C)CC/C=C(\C)C(=O)O)[C@@]2(C)CC=C3C(=CC[C@H]4C(C)(C)C(=O)CC[C@]34C)[C@]12C [Compound 1, Ganoderic acid T-Q] | 55.4 ± 4.1 | – | –
C/C(=C\CC[C@@H](C)[C@H]1C[C@H](O)[C@@]2(C)C3=CC[C@H]4C(C)(C)C(=O)CC[C@]4(C)C3=CC[C@]12C)C(=O)O [Compound 2, Ganoderic acid TR] | 59.2 ± 1.9 | 245 | –
CC(=O)O[C@H]1C[C@H]([C@H](C)CC/C=C(\C)C(=O)O)[C@@]2(C)CC=C3C(=CC[C@H]4C(C)(C)[C@@H](O)CC[C@]34C)[C@]12C [Compound 3, Ganoderic acid T-N] | 43.6 ± 1.2 | – | 27.5 ± 1.4
C/C(=C/CC[C@@H](C)[C@H]1CC[C@@]2(C)C3=CC[C@H]4C(C)(C)C(=O)CC[C@]4(C)C3=CC[C@]12C)C(=O)O [Compound 4, Ganoderic acid Sz] | 22.5 ± 0.3 | – | 29.3 ± 5.1
C/C(=C/CC[C@@H](C)[C@H]1CC[C@@]2(C)C3=CC[C@H]4C(C)(C)C(=O)CC[C@]4(C)C3=CC[C@]12C)C(=O)O [Compound 5, Ganoderic acid S] | 44.9 ± 3.2 | – | 34.1 ± 2.2
C/C(=C\CC[C@@H](C)[C@H]1CC[C@@]2(C)C3=CC[C@H]4C(C)(C)[C@@H](O)CC[C@]4(C)C3=CC[C@]12C)C(=O)O [Compound 6, Ganoderic acid Y] | 23.2 ± 3.4 | – | 16.9 ± 2.8
C[C@H](CC(=O)C[C@@H](C)[C@H]1C[C@H](O)[C@@]2(C)C3=C(C(=O)C[C@]12C)[C@@]1(C)CCC(=O)C(C)(C)[C@@H]1C[C@@H]3O)C(=O)O [Compound 7, Ganoderic acid A] | 32.1 ± 2.7 | – | 15.3 ± 1.8
C/C(=C\C(=O)CC(C)C(=O)O)[C@H]1C[C@H](O)[C@@]2(C)C3=C(C(=O)C[C@]12C)[C@@]1(C)CCC(=O)C(C)(C)[C@@H]1C[C@@H]3O (stereo partly shown) [Compound 8, Ganoderenic acid A] | 29.1 ± 2.3 | – | 12.4 ± 1.8
C[C@H](CC(=O)C[C@@H](C)[C@H]1C[C@H](O)[C@@]2(C)C3=C(C(=O)C[C@]12C)[C@@]1(C)CC[C@H](O)C(C)(C)[C@@H]1C[C@@H]3O)C(=O)O [Compound 9, Ganoderic acid C2] | 45.4 ± 1.1 | – | 13.7 ± 2.4
CC(CC(=O)C[C@@H](C)[C@H]1CC(=O)[C@@]2(C)C3=C(C(=O)C[C@]12C)[C@@]1(C)CC[C@H](O)C(C)(C)[C@@H]1CC3=O)C(=O)O (stereo partly shown) [Compound 10, Ganoderic acid AM1] | 31.3 ± 3.2 | – | 9.3 ± 1.6
CC(=O)O[C@@H]1C(=O)C2=C([C@@H](O)C[C@H]3C(C)(C)[C@@H](O)CC[C@]23C)[C@]2(C)C(=O)C[C@H]([C@H](C)CC(=O)CC(C)C(=O)O)[C@@]12C (stereo partly shown) [Compound 11, Ganoderic acid K] | 33.5 ± 2.4 | – | 14.2 ± 2.9
C/C(=C\C(=O)CC(C)C(=O)O)[C@H]1CC(=O)[C@@]2(C)C3=C(C(=O)C[C@]12C)[C@@]1(C)CC[C@H](O)C(C)(C)[C@@H]1CC3=O (stereo partly shown) [Compound 12, Ganoderenic acid H] | 38.6 ± 2.3 | – | 12.8 ± 5.1
CC(=O)O[C@@H]1C(=O)C2=C(C(=O)C[C@H]3C(C)(C)[C@@H](O)CC[C@]23C)[C@]2(C)C(=O)C[C@H]([C@H](C)CC(=O)CC(C)C(=O)O)[C@@]12C (stereo partly shown) [Compound 13, Ganoderic acid H] | 27.9 ± 1.5 | – | 16.9 ± 2.4
CC(CC(=O)C[C@@H](C)[C@H]1CC(=O)[C@@]2(C)C3=C(C(=O)C[C@]12C)[C@@]1(C)CC[C@H](O)C(C)(C)[C@@H]1C[C@@H]3O)C(=O)O (stereo partly shown) [Compound 14, Ganoderic acid B] | 38.7 ± 1.6 | – | 12.8 ± 1.4
C/C(=C\C(=O)CC(C)C(=O)O)[C@H]1CC(=O)[C@@]2(C)C3=C(C(=O)C[C@]12C)[C@@]1(C)CCC(=O)C(C)(C)[C@@H]1CC3=O (stereo partly shown) [Compound 15, Ganoderenic acid F] | 24.2 ± 3.9 | – | 24.4 ± 4.4
C/C(=C\C(=O)CC(C)C(=O)O)C1CC(O)C2(C)C3=C(C(=O)CC12C)C1(C)CCC(O)C(C)(C)C1CC3O (stereo not shown) [Compound 16, Ganoderenic acid C] | 37.5 ± 2.4 | – | 13.2 ± 2.2

Compound | Inhibition rate (%) NA(H3N2, E119V) (NA (H3N2, E119V)) [%] | IC50 (H1N1 (A/HA-58pdm-TR)) [µM] | Inhibition rate (%) NA(H1N1, N295S) (NA (H1N1, N295S)) [%]
CC(CC(=O)C[C@@H](C)[C@H]1CC(=O)[C@@]2(C)C3=C(C(=O)[C@@H](O)[C@]12C)[C@@]1(C)CC[C@H](O)C(C)(C)[C@@H]1CC3=O)C(=O)O (stereo partly shown) [Compound 18, Ganoderic acid C6] | 20.7 ± 0.5 | – | 17.6 ± 3.5
C[C@H](CC(=O)C[C@@H](C)[C@H]1CC(=O)[C@@]2(C)C3=C(C(=O)C[C@]12C)[C@@]1(C)CCC(=O)C(C)(C)[C@@H]1C[C@@H]3O)C(=O)O [Compound 19, Ganoderic acid C1] | 32.0 ± 3.4 | – | 14.7 ± 3.9
C/C(=C\CC[C@@H](C)[C@H]1CC[C@@]2(C)C3=C(CC[C@]12C)[C@@]1(C)CCC(=O)C(C)(C)[C@@H]1CC3=O)C(=O)O [Compound 20, Ganoderic acid DM] | 28.8 ± 0.5 | – | 19.0 ± 2.4
CC(CC(=O)C[C@@H](C)[C@H]1C[C@H](O)[C@@]2(C)C3=C(C(=O)C[C@]12C)[C@@]1(C)CCC(=O)C(C)(C)[C@@H]1CC3)C(=O)O (stereo partly shown) [Compound 21, Ganolucidic acid A] | 22.9 ± 3.8 | – | 21.0 ± 4.2
C/C(=C\[C@@H](O)C[C@@H](C)[C@H]1CC(=O)[C@@]2(C)C3=C(C(=O)C[C@]12C)[C@@]1(C)CC[C@H](O)C(C)(C)[C@@H]1CC3=O)C(=O)O [Compound 22, Ganoderic acid Zeta] | 18.7 ± 4.5 | – | 25.5 ± 4.9
C/C(=C\[C@@H](O)C[C@@H](C)[C@H]1CC(=O)[C@@]2(C)C3=C(C(=O)C[C@]12C)[C@@]1(C)CCC(=O)C(C)(C)[C@@H]1C[C@@H]3O)C(=O)O [Compound 23, Ganoderic acid LM2] | 12.9 ± 1.0 | – | 15.4 ± 0.6
CC(=O)O[C@@H]1C(=O)C2=C(C(=O)C[C@H]3C(C)(C)C(=O)CC[C@]23C)[C@]2(C)C(=O)C[C@H]([C@H](C)CC(=O)CC(C)C(=O)O)[C@@]12C (stereo partly shown) [Compound 24, Ganoderic acid F] | 19.9 ± 2.6 | – | 17.6 ± 2.0
C/C(=C\CC[C@@H](C)[C@H]1CC[C@@]2(C)C3=CC[C@H]4C(C)(C)C(=O)CC[C@]4(C)C3=CC[C@]12C)CO [Compound 25, Ganoderol A] | 18.2 ± 2.7 | – | 22.6 ± 1.8
C/C(=C\CC[C@@H](C)[C@H]1CC[C@@]2(C)C3=CC[C@H]4C(C)(C)[C@@H](O)CC[C@]4(C)C3=CC[C@]12C)CO [Compound 26, Ganoderol B] | 19.1 ± 6.1 | – | 19.9 ± 1.1
C[C@H](CCC=C(CO)CO)[C@H]1CC[C@@]2(C)C3=CC[C@H]4C(C)(C)C(=O)CC[C@]4(C)C3=CC[C@]12C [Compound 27, Ganoderiol F] | 16.8 ± 1.2 | – | 9.5 ± 4.5
C[C@H](CC[C@H](O)C(C)(C)O)[C@H]1CC[C@@]2(C)C3=CC[C@H]4C(C)(C)C(=O)CC[C@]4(C)C3=CC[C@]12C [Compound 28, Ganodermanondiol] | 34.2 ± 0.9 | – | 19.0 ± 4.2
C[C@H](CC[C@H](O)[C@](C)(O)CO)[C@H]1CC[C@@]2(C)C3=CC[C@H]4C(C)(C)C(=O)CC[C@]4(C)C3=CC[C@]12C [Compound 29, Ganodermanontriol] | 12.2 ± 3.4 | – | 7.9 ± 3.2
C/C(C=O)=C\CC[C@@H](C)[C@H]1CC[C@@]2(C)C3=CC[C@H]4C(C)(C)[C@@H](O)CC[C@]4(C)C3=CC[C@]12C [Compound 30, Lucialdehyde A] | 25.9 ± 8.1 | – | 5.8 ± 2.4
C/C(C=O)=C\CC[C@@H](C)[C@H]1CC[C@@]2(C)C3=C(CC[C@]12C)[C@@]1(C)CCC(=O)C(C)(C)[C@@H]1CC3=O [Compound 31, Lucialdehyde B] | 43.3 ± 1.0 | – | 11.2 ± 1.3
Ganoderenic acid D [Compound 17] | 32.2 ± 3.4 | – | 13.8 ± 3.1
